Assay: Effect of concentration on the stability of the solution (purity over time)
Conditions: for Stability of common ester over the concentrations tested: 0.01% to 10% (or higher) in 50% ethanol at 25° C.; for Purity (%) at Day 3 / Purity (%) at Day 7 / Purity (%) at hr 0 / Purity (%) at hr 24 / Purity(%) at Day 14 / Purity(%) at Day 21 / Purity(%) at Day 28: 25° C.

CC(C)(C)OC(=O)C(N)Cc1ccccc1 (centres unmarked) [t-Butyl 2-amino-3-phenylpropanoate, reference compound]
Stability of common ester over the concentrations tested: not stable
Purity (%) at Day 3 (0.01 wt % in 50% ethanol): 92.1%
Purity (%) at Day 7 (0.01 wt % in 50% ethanol): 89.4%
Purity (%) at hr 0 (0.01 wt % in 50% ethanol): 98.0%
Purity (%) at hr 24 (0.01 wt % in 50% ethanol): 96.1%
Purity(%) at Day 14 (0.01 wt % in 50% ethanol): 83.0%
Purity(%) at Day 21 (0.01 wt % in 50% ethanol): 60.2%
Purity(%) at Day 28 (0.01 wt % in 50% ethanol): 35.2%
Purity (%) at Day 3 (0.1 wt % in 50% ethanol): 93.1%
Purity (%) at Day 7 (0.1 wt % in 50% ethanol): 91.4%
Purity (%) at hr 0 (0.1 wt % in 50% ethanol): 98.0%
Purity (%) at hr 24 (0.1 wt % in 50% ethanol): 96.4%
Purity(%) at Day 14 (0.1 wt % in 50% ethanol): 86.1%
Purity(%) at Day 21 (0.1 wt % in 50% ethanol): 64.1%
Purity(%) at Day 28 (0.1 wt % in 50% ethanol): 41.0%
Purity (%) at Day 3 (1 wt % in 50% ethanol): 93.9%
Purity (%) at Day 7 (1 wt % in 50% ethanol): 92.2%
Purity (%) at hr 0 (1 wt % in 50% ethanol): 98.1%
Purity (%) at hr 24 (1 wt % in 50% ethanol): 96.7%
Purity(%) at Day 14 (1 wt % in 50% ethanol): 88.9%
Purity(%) at Day 21 (1 wt % in 50% ethanol): 70.9%
Purity(%) at Day 28 (1 wt % in 50% ethanol): 48.9%
Purity (%) at Day 3 (3 wt % in 50% ethanol): 94.6%
Purity (%) at Day 7 (3 wt % in 50% ethanol): 92.4%
Purity (%) at hr 0 (3 wt % in 50% ethanol): 98.2%
Purity (%) at hr 24 (3 wt % in 50% ethanol): 96.9%
Purity(%) at Day 14 (3 wt % in 50% ethanol): 89.5%
Purity(%) at Day 21 (3 wt % in 50% ethanol): 72.4%
Purity(%) at Day 28 (3 wt % in 50% ethanol): 50.4%
Purity (%) at Day 3 (5 wt % in 50% ethanol): 94.8%
Purity (%) at Day 7 (5 wt % in 50% ethanol): 93.1%
Purity (%) at hr 0 (5 wt % in 50% ethanol): 98.1%
Purity (%) at hr 24 (5 wt % in 50% ethanol): 97.0%
Purity(%) at Day 14 (5 wt % in 50% ethanol): 90.0%
Purity(%) at Day 21 (5 wt % in 50% ethanol): 73.0%
Purity(%) at Day 28 (5 wt % in 50% ethanol): 56.9%
Purity (%) at Day 3 (10 wt % in 50% ethanol): 95.9%
Purity (%) at Day 7 (10 wt % in 50% ethanol): 93.9%
Purity (%) at hr 0 (10 wt % in 50% ethanol): 98.2%
Purity (%) at hr 24 (10 wt % in 50% ethanol): 97.6%
Purity(%) at Day 14 (10 wt % in 50% ethanol): 91.0%
Purity(%) at Day 21 (10 wt % in 50% ethanol): 74.9%
Purity(%) at Day 28 (10 wt % in 50% ethanol): 59.2%

CC(C)OC(=O)C(N)Cc1ccccc1 (centres unmarked) [Isopropyl 2-amino-3-phenylpropanoate, reference compound]
Stability of common ester over the concentrations tested: quite stable
Purity (%) at Day 3 (0.01 wt % in 50% ethanol): 97.4%
Purity (%) at Day 7 (0.01 wt % in 50% ethanol): 97.1%
Purity (%) at hr 0 (0.01 wt % in 50% ethanol): 98.4%
Purity (%) at hr 24 (0.01 wt % in 50% ethanol): 98.3%
Purity(%) at Day 14 (0.01 wt % in 50% ethanol): 96.5%
Purity(%) at Day 21 (0.01 wt % in 50% ethanol): 95.9%
Purity(%) at Day 28 (0.01 wt % in 50% ethanol): 95.1%
Purity (%) at Day 3 (0.1 wt % in 50% ethanol): 97.6%
Purity (%) at Day 7 (0.1 wt % in 50% ethanol): 97.3%
Purity (%) at hr 0 (0.1 wt % in 50% ethanol): 98.5%
Purity (%) at hr 24 (0.1 wt % in 50% ethanol): 98.4%
Purity(%) at Day 14 (0.1 wt % in 50% ethanol): 96.8%
Purity(%) at Day 21 (0.1 wt % in 50% ethanol): 96.5%
Purity(%) at Day 28 (0.1 wt % in 50% ethanol): 95.7%
Purity (%) at Day 3 (1 wt % in 50% ethanol): 97.9%
Purity (%) at Day 7 (1 wt % in 50% ethanol): 97.6%
Purity (%) at hr 0 (1 wt % in 50% ethanol): 98.7%
Purity (%) at hr 24 (1 wt % in 50% ethanol): 98.5%
Purity(%) at Day 14 (1 wt % in 50% ethanol): 97.2%
Purity(%) at Day 21 (1 wt % in 50% ethanol): 96.8%
Purity(%) at Day 28 (1 wt % in 50% ethanol): 96.1%
Purity (%) at Day 3 (3 wt % in 50% ethanol): 98.2%
Purity (%) at Day 7 (3 wt % in 50% ethanol): 97.8%
Purity (%) at hr 0 (3 wt % in 50% ethanol): 98.7%
Purity (%) at hr 24 (3 wt % in 50% ethanol): 98.6%
Purity(%) at Day 14 (3 wt % in 50% ethanol): 97.4%
Purity(%) at Day 21 (3 wt % in 50% ethanol): 97.0%
Purity(%) at Day 28 (3 wt % in 50% ethanol): 96.5%
Purity (%) at Day 3 (5 wt % in 50% ethanol): 98.5%
Purity (%) at Day 7 (5 wt % in 50% ethanol): 98.4%
Purity (%) at hr 0 (5 wt % in 50% ethanol): 98.7%
Purity (%) at hr 24 (5 wt % in 50% ethanol): 98.6%
Purity(%) at Day 14 (5 wt % in 50% ethanol): 98.2%
Purity(%) at Day 21 (5 wt % in 50% ethanol): 97.8%
Purity(%) at Day 28 (5 wt % in 50% ethanol): 97.1%
Purity (%) at Day 3 (10 wt % in 50% ethanol): 98.6%
Purity (%) at Day 7 (10 wt % in 50% ethanol): 98.5%
Purity (%) at hr 0 (10 wt % in 50% ethanol): 98.8%
Purity (%) at hr 24 (10 wt % in 50% ethanol): 98.7%
Purity(%) at Day 14 (10 wt % in 50% ethanol): 98.3%
Purity(%) at Day 21 (10 wt % in 50% ethanol): 97.9%
Purity(%) at Day 28 (10 wt % in 50% ethanol): 97.3%

From US20230157952A1, “METHOD FOR IMPROVING THE STABILITY OF A PHARMACEUTICAL COMPOSITION COMPRISING A HIGH PENETRATION DRUG, AND THE PHARMACEUTICAL COMPOSITION OBTAINED THEREFROM” (Techfields Inc., priority 2020, published 2023)
